These results are taken from patent US8053452B2, “Substituted isoxazoline or enone oxime compound, and pest control agent” (Nissan Chemical Industries, Ltd., priority 2007, dated 2011).

One data set concerns Helicoverpa armigera. Nature of the data set: Mortality test for Helicoverpa armigera. The class given is in vivo. The conditions noted are these: 144 h, drug solution 100 ppm, cabbage leaf immersed, 2 instar larva, after 6 days. The procedure:
A 10% emulsifiable concentrate of the compound of the present invention (depending on the type of the compound, a 10% wettable powder was subjected to the test) was diluted with water containing a spreader to prepare a drug solution in a concentration of 100 ppm. In this drug solution, a leaf of cabbage was immersed for about 10 seconds and was air-dried and then put into a petri dish. In the petri dish, one 2 instar larva of Helicoverpa armigera per petri dish was released and the petri dish was capped and stored in a thermostatic room of 25° C. The number of killed larvae after 6 days was counted and the mortality was calculated from the same calculation formula as that in Test Example 1. Here, the test was carried out with 12 replications.

In another data set the test system is Nilaparvata lugens. Nature of the data set: Mortality test for Nilaparvata lugens. It counts as in vivo. The conditions noted are these: 144 h, drug solution 500 ppm, rice leaf sheath immersed, 2 instar larvae, after 6 days. The procedure:
(§1) A 10% emulsifiable concentrate of the compound of the present invention (depending on the type of the compound, a 10% wettable powder was subjected to the test) was diluted with water containing a spreader to prepare a drug solution in a concentration of 500 ppm. In this drug solution, a leaf sheath of rice was immersed for about 10 seconds and was air-dried and then put into a test tube. In the test tube, five 2 instar larvae of Nilaparvata lugens per test tube were released and the test tube was capped with a sponge and stored in a thermostatic room of 25° C. The number of killed larvae after 6 days was counted and the mortality was calculated from the same calculation formula as that in Test Example 1. Here, the test was carried out with two replications.

Another data set has as its system Plutella xylostella. Nature of the data set: Mortality test for Plutella xylostella. The class given is in vivo. The conditions noted are these: 144 h. The procedure: A 10% emulsifiable concentrate of the compound of the present invention (depending on the type of the compound, a 10% wettable powder was subjected to the test) was diluted with water containing a spreader to prepare a drug solution in a concentration of 10 ppm. In this drug solution, a leaf of cabbage was immersed for about 10 seconds and was air-dried and then put into a petri dish. In the petri dish, five 2 instar larvae of Plutella xylostella per petri dish were released and the petri dish was capped and stored in a thermostatic room of 25° C. The number of killed larvae after 6 days was counted and the mortality was calculated from the following calculation formula: Mortality(%)=(number of killed larvae/number of released larvae)×100. Here, the test was carried out with two replications.

The next data set deals with Spodoptera litura. Nature of the data set: Mortality test for Spodoptera litura. It counts as in vivo. The conditions noted are these: 144 h. The procedure: (§2) A 10% emulsifiable concentrate of the compound of the present invention (depending on the type of the compound, a 10% wettable powder was subjected to the test) was diluted with water containing a spreader to prepare a drug solution in a concentration of 10 ppm. In this drug solution, a leaf of cabbage was immersed for about 10 seconds and was air-dried and then put into a petri dish. In the petri dish, five 2 instar larvae of Spodoptera litura per petri dish were released and the petri dish was capped and stored in a thermostatic room of 25° C. The number of killed larvae after 6 days was counted and the mortality was calculated from the same calculation formula as that in Test Example 1. Here, the test was carried out with two replications.

The next data set deals with Aulacophora femoralis. Nature of the data set: Mortality test for Aulacophora femoralis. The conditions noted are these: 144 h. It counts as in vivo. The procedure: as §2, with “of 500” for “of 10”, “of cucumber” for “of cabbage”, “of Aulacophora femoralis” for “of Spodoptera litura”
In the next data set the test system is Homona magnanima. Nature of the data set: Mortality test for Homona magnanima. The conditions noted are these: 144 h, drug solution 100 ppm, cabbage leaf immersed, 2 instar larvae, after 6 days. It counts as in vivo. The procedure:
as §2, with “of 100” for “of 10”, “of Homona magnanima” for “of Spodoptera litura”

For another data set, the system named is Liriomyza trifolii. In words: Mortality test for Liriomyza trifolii. The conditions noted are these: 144 h, drug solution 500 ppm, kidney bean leaf with eggs immersed, killed larvae after 6 days. It counts as in vivo. The procedure: as §1, with “leaf” for “leaf sheath”, “kidney bean on which Liriomyza trifolii laid eggs (10 eggs/leaf) and which was cut out to a diameter of 7 cm” for “rice”, “laid on” for “put into”, “wet filtration paper laid in a styrol cup having an inner diameter” for “test tube. In the test tube, five 2 instar larvae”, “7 cm. The styrol cup” for “Nilaparvata lugens per test tube were released and the test tube”, “capped” for “capped with a sponge”

A further data set concerns Eysarcoris lewisi. Nature of the data set: Mortality test for Eysarcoris lewisi. It counts as in vivo. The conditions noted are these: 48 h, drug solution 500 ppm, rice leaf sheath immersed, 1 instar larvae, after 2 days. The procedure: as §1, with “five 1” for “five 2”, “of Eysarcoris lewisi” for “of Nilaparvata lugens”, “after 2” for “after 6”
[1] abbreviates: drug solution 100 ppm (mark *), cabbage leaf immersed, 2 instar larvae, after 6 days, read-out: mortality.

Where two headings read alike, the source gives them in different places.

For the molecule `CSc1ccc(C2=NOC(c3cc(Cl)cc(Cl)c3)(C(F)(F)F)C2Br)cc1` (stereo not shown) [4-002, 4-bromo-5-(3,5-dichlorophenyl)-3-(4-(methylthio)phenyl)-5-trifluoromethyl-4,5-dihydroisoxazole], the mortality at 100 ppm with Helicoverpa armigera, with Plutella xylostella (in Brassica oleracea) and in the data set on Spodoptera litura (in Brassica oleracea) was ≥ 80% throughout. In the data set on Nilaparvata lugens, the mortality (commonly the share of the test organisms that died) at 500 ppm is ≥ 80%.
Consider `CC1C(c2ccc(CN(C)C(=O)C3CC3)c(Br)c2)=NOC1(c1cc(Cl)cc(Cl)c1)C(F)(F)F` (stereo not shown) [2-005, N-(2-bromo-4-(5-(3,5-dichlorophenyl)-4-methyl-5-trifluoromethyl-4,5-dihydroisoxazole-3-yl)phenylmethyl)-N-(methyl)cyclopropanecarboxamide], for which the mortality at 500 ppm in the data set with Plutella xylostella (in Brassica oleracea) and in the data set on Spodoptera litura (in Brassica oleracea) was ≥ 80% each time.
Turning to `Cc1cc(C(/C=C(\c2cc(Cl)cc(Cl)c2)C(F)(F)F)=NO)ccc1C(=O)NCC(F)(F)F` [6-001, 4-((2E)-3-(3,5-dichlorophenyl)-4,4,4-trifluoro-1-(hydroxyimino)-2-butenyl)-2-methyl-N-(2,2,2-trifluoroethyl)benzoic acid amide], the mortality at 500 ppm in the data set with Plutella xylostella (drug solution 500 ppm (mark **), cabbage leaf immersed, 2 instar larvae, after 6 days, read-out: mortality) was ≥ 80%; with Aulacophora femoralis (drug solution 500 ppm, cucumber leaf immersed, 2 instar larvae, after 6 days, read-out: mortality) it was ≥ 80%.
Turning to `Cc1cc(C2=NOC(c3cc(Cl)cc(Cl)c3)(C(F)(F)F)C2C)ccc1C(=O)NCC(F)(F)F` (stereo not shown) [1-004, 4-(5-(3,5-dichlorophenyl)-4-methyl-5-trifluoromethyl-4,5-dihydroisoxazole-3-yl)-2-methyl-N-(2,2,2-trifluoroethyl)benzoic acid amide], the mortality at 100 ppm in the data set on Homona magnanima, in the data set with Plutella xylostella (in Brassica oleracea) and in the data set with Spodoptera litura (in Brassica oleracea) was ≥ 80% throughout. For the same molecule, the mortality at 500 ppm in the data set with Liriomyza trifolii, with Eysarcoris lewisi and in the data set on Aulacophora femoralis (in Cucumis sativus) was ≥ 80% in each case.
`O=C(NCc1ccc(C2=NOC(c3cc(Cl)cc(Cl)c3)(C(F)(F)F)C2Br)cc1Br)C1CC1` (stereo not shown) [2-002, N-(2-bromo-4-(4-bromo-5-(3,5-dichlorophenyl)-5-trifluoromethyl-4,5-dihydroisoxazole-3-yl)phenylmethyl)cyclopropylcarboxamide]: the mortality at 500 ppm in the data set with Nilaparvata lugens was ≥ 80%.
On to `Cc1cc(C(/C=C(/c2cc(Cl)cc(Cl)c2)C(F)(F)F)=NO)ccc1C(=O)NCC(F)(F)F` [5-001, 4-((2Z)-3-(3,5-dichlorophenyl)-4,4,4-trifluoro-1-(hydroxyimino)-2-butenyl)-2-methyl-N-(2,2,2-trifluoroethyl)benzoic acid amide], for which the mortality at 100 ppm in the data set with Plutella xylostella (setting [1]) and in the data set on Spodoptera litura (setting [1]) was ≥ 80% throughout.
In the case of `NC(=O)c1ccc(C2=NOC(c3cc(C(F)(F)F)cc(C(F)(F)F)c3)(C(F)(F)F)C2Br)cc1` (stereo not shown), the melting point – broadly, the temperature of the solid-liquid transition – is 190 to 193 °C.
For the molecule `CSC1C(c2ccc(C(=O)NCC(F)(F)F)c(C)c2)=NOC1(c1cc(Cl)cc(Cl)c1)C(F)(F)F` (stereo not shown) [1-005, 4-(5-(3,5-dichlorophenyl)-4-methylthio-5-trifluoromethyl-4,5-dihydroisoxazole-3-yl)-2-methyl-N-(2,2,2-trifluoroethyl)benzoic acid amide], the mortality at 100 ppm with Plutella xylostella (in Brassica oleracea) and in the data set with Spodoptera litura (in Brassica oleracea) was ≥ 80% in each case.
As for `Cc1cc(C2=NOC(c3cc(Cl)cc(Cl)c3)(C(F)(F)F)C2Cl)ccc1C(=O)NCC(F)(F)F` (stereo not shown) [1-002, 4-(4-chloro-5-(3,5-dichlorophenyl)-5-trifluoromethyl-4,5-dihydroisoxazole-3-yl)-2-methyl-N-(2,2,2-trifluoroethyl)benzoic acid amide], the mortality at 10 ppm with Plutella xylostella (in Brassica oleracea) and in the data set on Spodoptera litura (in Brassica oleracea) was ≥ 80% in each case.
In the case of `Cc1cc(C2=NOC(c3cc(Cl)cc(Cl)c3)(C(F)(F)F)C2Br)ccc1C(=O)NCC(F)(F)F` (stereo not shown) [1-003, 4-(4-bromo-5-(3,5-dichlorophenyl)-5-trifluoromethyl-4,5-dihydroisoxazole-3-yl)-2-methyl-N-(2,2,2-trifluoroethyl)benzoic acid amide], the mortality at 500 ppm in the data set with Nilaparvata lugens, in the data set with Liriomyza trifolii, in the data set with Eysarcoris lewisi and with Aulacophora femoralis (in Cucumis sativus) was ≥ 80% in each case. Further, the mortality at 100 ppm with Plutella xylostella (in Brassica oleracea) and with Spodoptera litura (in Brassica oleracea) was ≥ 80% each time.
As to `CON=CNC(=O)c1ccc(C2=NOC(c3cc(C(F)(F)F)cc(C(F)(F)F)c3)(C(F)(F)F)C2Br)cc1` (stereo not shown) [1-011, 4-(4-bromo-5-(3,5-bis(trifluoromethyl)phenyl)-5-trifluoromethyl-4,5-dihydroisoxazole-3-yl)-N-(methoxyiminomethyl)benzoic acid amide], the mortality at 500 ppm with Nilaparvata lugens was ≥ 80%. The mortality at 100 ppm in the data set on Plutella xylostella (in Brassica oleracea) and with Spodoptera litura (in Brassica oleracea) was ≥ 80% in each case.
